Values of other authors, collected in patent US20220087960A1, “Oral Pharmaceutical Immediate Release Composition” (Aardvark Therapeutics Inc., priority 2020, published 2022).

System: C57BL/6 DIO mice
Conditions: 60 μmol/kg (26.8 mg/kg) once daily, 28-day period; cited from earlier work

## CC[N+](CC)(CC(=O)Nc1c(C)cccc1C)Cc1ccccc1.O=C([O-])c1ccccc1 [DB, benzyl-[2-(2,6-dimethylanilino)-2-oxoethyl]-diethylazanium benzoate]
  body weight as compared to vehicle: induced a decrease in body weight
